Assay results as given in patent publication US7338777B2, “Method for determining the biological activity of defibrotide” (Gentium SPA, priority 2001, dated 2008).

Biological target: T1, human plasmin (Homo sapiens, UniProt P00747)
T1 construct: precursors of plasmin, such as plasminogen
Test: indirect enzymatic determination: release of pNA from chromogenic substrate S-2251 by plasmin in the presence of defibrotide
Format: biochemical
Protocol: 150 μl of each of the standard defibrotide solutions described above are taken and introduced into the wells of the microplates.
The plasmin solution is then prepared rapidly by adding, at 0° C., 3.8 ml of TRIS-HCl buffer to the test tube containing 0.2 ml of human plasmin solution. The whole is agitated gently until dissolution has occurred, and 50 μl are taken and introduced into the wells of the microplate, followed by 50 μl of S-2251 for each well.
The microplate, placed in the MRX TCII reader set at 37° C., is agitated for approximately 10 seconds; the absorbance readings are carried out at 405 nm, at the initial time t0 and subsequently every two minutes in the interval from 10 to 20 minutes, in accordance with the enzymatic kinetics program.
The microplate, placed in the MRX TCII reader set at 37° C., is agitated for approximately 10 seconds; the absorbance readings are taken at 405 nm, at the initial time t0 and subsequently every 5 minutes for a period from the 20th to the 50th minute, in accordance with the enzymatic kinetics program.
The absorbance values measured are then processed (Excel and Sigma Plot programs), tabulated and represented in a graph (regression lines).
In addition, considering the data reported in Table 1, 2 and 3, we have also calculated the μM/min of p-Nitroaniline released by plasmin acting on the chromogenic substrate in the presence of Defibrotide.
The “b” values reported in Tables 1, 2 and 3, namely the slopes of the kinetics curves, represent the ΔAbs/min×1000 (usually, just to avoid numbers with commas, the scale for the spectrophotometric readings in FIGS. 3, 4 and 5 was multiplied by 1000; as a consequence, the real spectrophotometric absorbance reading is obtained dividing “b” by 1,000).
Knowing from the literature, the Molar Extinction Coefficient for p-Nitroaniline (8,270 M^−1cm^−1, corresponding to 0.008270 Unit of Absorbance per μM of p-Nitroaniline) it follows that: 1μM p-Nitroaniline: 0.008270 (Absorbance)=X μM p-Nitroaniline: Spectrophotometric Reading (“b”/1000)
In this way we have calculated the micromoles of p-Nitroaniline released in the previous experiments, whose value are reported in table 4.

[1] = Mean±Standard Deviation of 5 replications, X = concentration of defibrotide (μg/ml)
[2] = Replication 2, X = concentration of defibrotide (μg/ml)
[3] = Replication 3, X = concentration of defibrotide (μg/ml)
[4] = Replication 4, X = concentration of defibrotide (μg/ml)
[5] = Replication 5, X = concentration of defibrotide (μg/ml)

T1 sequence (P00747 97-580 limits assumed): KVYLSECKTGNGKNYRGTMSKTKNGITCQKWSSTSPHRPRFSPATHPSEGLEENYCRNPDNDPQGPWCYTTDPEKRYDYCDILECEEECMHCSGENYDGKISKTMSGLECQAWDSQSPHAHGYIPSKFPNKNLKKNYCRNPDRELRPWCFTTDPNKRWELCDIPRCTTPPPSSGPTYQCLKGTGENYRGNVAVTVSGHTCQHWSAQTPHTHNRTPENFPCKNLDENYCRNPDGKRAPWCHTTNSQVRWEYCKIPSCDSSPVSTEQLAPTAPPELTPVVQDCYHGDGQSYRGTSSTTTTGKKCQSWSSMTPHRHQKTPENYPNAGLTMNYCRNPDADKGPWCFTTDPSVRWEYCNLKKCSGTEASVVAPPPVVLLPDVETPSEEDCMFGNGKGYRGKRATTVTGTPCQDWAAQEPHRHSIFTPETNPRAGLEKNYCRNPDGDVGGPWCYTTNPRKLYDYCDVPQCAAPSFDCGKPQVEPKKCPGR
T1 sequence (P00747 581-810 limits assumed): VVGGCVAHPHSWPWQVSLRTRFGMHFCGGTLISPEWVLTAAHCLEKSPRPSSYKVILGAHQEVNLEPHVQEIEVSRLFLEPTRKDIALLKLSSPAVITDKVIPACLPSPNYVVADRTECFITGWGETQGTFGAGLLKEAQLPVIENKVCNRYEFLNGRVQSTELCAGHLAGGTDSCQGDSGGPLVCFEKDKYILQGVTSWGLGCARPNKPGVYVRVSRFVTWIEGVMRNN

- a of pNA(μM/min)=a+blog X [1]: 0.6908±0.0291 μM/min
- b of pNA(μM/min)=a+blog X [1]: 0.3140±0.0437
- slope b of regression μM/min p-Nitroaniline = a + b log X (Replication 1, X = concentration of defibrotide (μg/ml)): 0.3820
- intercept a of regression μM/min p-Nitroaniline = a + b log X (Replication 1, X = concentration of defibrotide (μg/ml), 37° C., 405 nm): 0.7317 μM/min
- intercept a of regression μM/min p-Nitroaniline = a + b log X [2]: 0.6625 μM/min
- slope b of regression μM/min p-Nitroaniline = a + b log X [2]: 0.2907
- intercept a of regression μM/min p-Nitroaniline = a + b log X [3]: 0.6708 μM/min
- slope b of regression μM/min p-Nitroaniline = a + b log X [3]: 0.2741
- intercept a of regression μM/min p-Nitroaniline = a + b log X [4]: 0.6792 μM/min
- slope b of regression μM/min p-Nitroaniline = a + b log X [4]: 0.2907
- intercept a of regression μM/min p-Nitroaniline = a + b log X [5]: 0.7100 μM/min
- slope b of regression μM/min p-Nitroaniline = a + b log X [5]: 0.3323
Substance: Defibrotide
- effect on rate of release of compound X (pNA) by plasmin from its substrate (plasmin-evaluation tests with substrate A1-A2-A3-X): increases the rate of release of compound X proportionally to its concentration
